Consider one molecule from ChEMBL document CHEMBL1157997, “A new biologically active acylated triterpene saponin from Silene fortunei” (J Nat Prod, 1999).

Molecules are shown by their SMILES.

Data set [1] is described as follows: Cytotoxicity against human neutrophil granulocytes upto 100 ug/mL.
Data set [2] can be described thus: Enhancement of human neutrophil granulocytes phagocytosis at 10 to 100 ug/mL by flow cytometric analysis. Type of data set: functional. On the technique in general: Flow cytometry measures light scatter and fluorescence of single cells or particles in a stream.

`CC(=O)O[C@@H]1[C@H](O[C@@H]2O[C@H](CO)[C@@H](O)[C@H](O)[C@H]2O)[C@@H](O[C@@H]2O[C@@H](C)[C@H](O[C@@H]3OC[C@@H](O)[C@H](O)[C@H]3O[C@@H]3OC[C@H](O)[C@H](O)[C@H]3O[C@@H]3OC[C@H](O)[C@H](O)[C@H]3O)[C@@H](O)[C@H]2O)[C@H](OC(=O)[C@]23CCC(C)(C)C[C@H]2C2=CC[C@@H]4[C@@]5(C)CC[C@H](O[C@@H]6O[C@H](C(=O)O)[C@@H](O)[C@H](O)[C@H]6O[C@@H]6O[C@H](CO)[C@H](O)[C@H](O)[C@H]6O)[C@@](C)(C=O)C5=CC[C@@]4(C)[C@]2(C)C[C@H]3O)O[C@@H]1C`: the values for the Activity result in data set [1] and in data set [2] were “Non-toxic” and 24%, respectively.
